The text below walks through data of patent US20220073536A1 (Rigel Pharmaceuticals, Inc., priority 2003, published 2022).

Where two headings read alike, the source gives them in different places.

In this assay the test system is cultured human mast cells (CHMC). In words: CHMC low cell density IgE activation: tryptase assay. It is filed as cell-based. The settings on record: IgE activation. Here is the method: Inhibition of degranulation was measured at both low and high cell density by quantifying the release of the granule specific factors tryptase, histamine and hexosaminidase. Inhibition of release and/or synthesis of lipid mediators was assessed by measuring the release of leukotriene LTC4 and inhibition of release and/or synthesis of cytokines was monitored by quantifying TNF-α, IL-6 and IL-13. Tryptase and hexosaminidase were quantified using fluorogenic substrates as described in their respective examples. […] The protocols of the various assays are provided below.
Pellet CHMC cells (980 rpm, 10 min) and resuspend in pre-warmed MT. Add 65 ul of cells to each 96-well plate. Depending on the degranulation activity for each particular CHMC donor, load 1000-1500 cells/well. Mix four times followed by a 1 hr incubation at 37° C. […] Stimulate cells by adding 25 ul of 6× anti-IgE solution to the appropriate plates. Add 25 ul MT to un-stimulated control wells. Mix twice following addition of the anti-IgE. Incubate at 37° C. for 30 minutes. […] Spin plates at 1000 rpm for 10 min to pellet cells. Transfer 25 ul of supernatant to a 96-well black bottom plate and add 100 ul of freshly diluted tryptase substrate solution to each well. Incubate plates at room temperature for 30 min.

[1] abbreviates: low cell density CHMC, tryptase, 3 pt, read-out: LD Tryptase, CHMC, IgE, 3 pt.
Where [2] appears, read: low cell density CHMC, tryptase, 8 pt, read-out: LD Tryptase, CHMC, IgE, 8 pt.
[3] abbreviates: Homo sapiens, Mast cell, low cell density CHMC, tryptase release, 8 pt, read-out: LD Tryptase, CHMC, IgE, 8 pt.
The mark [4] stands for this setting: low cell density CHMC, tryptase release, 8 pt, read-out: LD Tryptase, CHMC, IgE, 8 pt.
[5] abbreviates: Homo sapiens, Mast cell, low cell density CHMC, tryptase release, 3 pt, read-out: LD Tryptase, CHMC, IgE, 3 pt.
[6] abbreviates: low cell density CHMC, tryptase release, 3 pt, read-out: LD Tryptase, CHMC, IgE, 3 pt.

“5-Fluoro-N2,N4-bis (4-[N-[methoxycarbonylmethylene]aminocarbonyl]phenyl)-2,4-pyrimidinediamine [Compound 1332]”: the IC50 reads like this: under setting [1], under 10 µM; under setting [2], under 10 µM.
In the case of “5-Fluoro-N2- (3-hydroxyphenyl)-N4- (4-[N-[methoxycarbonylmethylene]aminocarbonyl]phenyl)-2,4-pyrimidinediamine [Compound 1328]”, the IC50 under setting [2] is under 10 µM.
With “5-Fluoro-N2-[2- (N-methylamino)carbonylindol-7-yl]-N4-[3,4-(tetrafluoroethylenedioxy)phenyl]-2,4-pyrimidinediamine [Compound 365]”, under setting [1], the IC50 was under 10 µM.
Consider `CC1Sc2ccc(Nc3nc(Nc4cccc(O)c4)ncc3F)cc2NC1=O` (racemic) [Compound 282], for which the IC50 under setting [3] was under 10 µM.
`CC1C(=O)Nc2cc(Nc3nc(Nc4cccc(O)c4)ncc3F)ccc2S1(=O)=O` (racemic) [Compound 284, racemic-5-Fluoro-N2-[3-hydoxyphenyl]-N4-(2-methyl-1,1,3-trioxo-2H,4H-benzo[1,4]thiazin-6-yl)-2,4-pyrimidinediamine]: the IC50 under setting [4] was under 10 µM.
On the same count and under the same terms, the figure for `CNC(=O)COc1cccc(Nc2ncc(F)c(Nc3ccc4c(c3)NC(=O)C(C)S4(=O)=O)n2)c1` (racemic) [Compound 285, racemic-5-Fluoro-N2-[3-(N-methylamino)carbonylmethyleneoxyphenyl]-N4-(2-methyl-1,1,3-trioxo-2H,4H-benzo[1,4]thiazin-6-yl)-2,4-pyrimidinediamine] is under 10 µM.
Consider `COc1ccc(Nc2ncc(F)c(Nc3ccc4c(c3)NC(=O)C(C)S4(=O)=O)n2)cc1Cl` (racemic) [Compound 286], for which the IC50 under setting [3] was under 10 µM.
With `COc1ccc(Nc2ncc(F)c(Nc3ccc4c(c3)NC(=O)C(C)S4(=O)=O)n2)cc1F` (racemic) [Compound 296], the IC50 is, setting by setting: under setting [5], under 10 µM; under setting [3], under 10 µM.
As to `COc1ccc(Nc2ncc(F)c(Nc3ccc4c(c3)NC(=O)C(C)S4)n2)cc1F` (racemic) [Compound 298], the IC50 reads like this: under setting [5], under 10 µM; under setting [3], under 10 µM.
As for `CC1Sc2ccc(Nc3nc(Cl)ncc3F)cc2NC1=O` (racemic) [Compound 314, racemic-N2-Chloro-5-fluoro-N4-(2-methyl-3-oxo-2H,4H-benzo[1,4]thiazin-6-yl)-4-pyrimidineamine], under setting [6], the IC50 is under 10 µM.
On the same count and under the same terms, the figure for `CC1C(=O)Nc2cc(Nc3nc(Cl)ncc3F)ccc2S1(=O)=O` (racemic) [Compound 317, racemic-N2-Chloro-5-fluoro-N4-(2-methyl-1,1,3-trioxo-2H,4H-benzo[1,4]thiazin-6-yl)-4-pyrimidineamine] is over 10 µM.
Consider `CC1C(=O)Nc2cc(-c3nc(Nc4ccc5oncc5c4)nc(N)c3F)ccc2S1(=O)=O` (racemic) [Compound 929], for which the IC50 (Homo sapiens, Mast cell, low cell density, 3 pt, read-out: LD Tryptase, CHMC, IgE, 3 pt) is under 10 µM.
As to `CC1Sc2ccc(Nc3nc(Nc4ccc5oncc5c4)ncc3F)cc2NC1=O` (racemic) [Compound 931], the IC50 (Homo sapiens, Mast cell, low cell density, 8 pt, read-out: LD Tryptase, CHMC, IgE, 8 pt) is under 10 µM.
For the compound `NC1CCOc2ccc(Nc3nc(Nc4ccc(-c5cnco5)cc4)ncc3F)cc21` (racemic) [Compound 1293, (R,S)-N4-[4-Amino-3,4-dihydro-2H-1-benzopyran-6-yl]-5-fluoro-N2-[4-(oxazol-5-yl)phenyl]-2,4-pyrimidinediamine], under setting [2], the IC50 is under 10 µM.
Still for that read-out and setting: next, `N[C@@H]1CCOc2ccc(Nc3nc(Nc4ccc(-c5ncco5)cc4)ncc3F)cc21` (racemic) [Compound 1294, (R,S)-N4-[4-Amino-3,4-dihydro-2H-1-benzopyran-6-yl]-5-fluoro-N2-[4-(oxazol-2-yl)phenyl]-2,4-pyrimidinediamine]: under 10 µM.
As to `C[C@@H]1Oc2ccc(Nc3nc(Nc4ccc5cn[nH]c5c4)ncc3F)cc2NC1=O` [Compound 200], the IC50 under setting [3] was under 10 µM.
Still for that read-out and setting: the figure for `C[C@@H]1Oc2ccc(Nc3nc(Nc4ccc5cnn(C)c5c4)ncc3F)cc2NC1=O` [Compound 201] is under 10 µM; for `Cc1cc(C)cc(Nc2ncc(F)c(Nc3ccc4c(c3)NC(=O)[C@H](C)O4)n2)c1` [Compound 202, (S)-N2-(3,5-Dimethylphenyl)-5-fluoro-N4-(2-methyl-3-oxo-2H,4H-benz[1,4]oxazin-6-yl)-2,4-pyrimidinediamine] it is under 10 µM; for `COc1cc(Nc2ncc(F)c(Nc3ccc4c(c3)NC(C)(C)CO4)n2)cc(OC)c1` [Compound 203, N4-(3,4-Dihydro-3,3-dimethyl-2H,4H-benz[1,4]oxazin-6-yl)-N2-(3,5-dimethoxyphenyl)-5-fluoro-2,4-pyrimidinediamine] it is under 10 µM.
As to `Cc1cc(C)cc(Nc2ncc(F)c(Nc3ccc4c(c3)NC(=O)[C@@H](C)O4)n2)c1` [Compound 204, (R)-N2-(3,5-Dimethylphenyl)-5-fluoro-N4-(2-methyl-3-oxo-2H,4H-benz[1,4]oxazin-6-yl)-2,4-pyrimidinediamine], the IC50 under setting [3] is under 10 µM.
Turning to `C[C@H]1Oc2ccc(Nc3nc(Nc4cc5c6c(c4)c(CCO)cn6CCO5)ncc3F)cc2NC1=O` [Compound 205, (R)-5-Fluoro-N2-[6-(2-hydroxyethyl)-2,3-dihydropyrrolo[1,2,3-d,e]benzoxazin-8-yl]-N4-(2-methyl-3-oxo-2H,4H-benz[1,4]oxazin-6-yl)-2,4-pyrimidinediamine], the IC50 under setting [4] was under 10 µM.
On to `CC1(C)COc2ccc(Nc3nc(Nc4cc5c6c(c4)c(CCO)cn6CCO5)ncc3F)cc2N1` [Compound 206, N4-(3,4-Dihydro-3,3-dimethyl-2H,4H-benz[1,4]oxazin-6-yl)-5-fluoro-N2-[6-(2-hydroxyethyl)-2,3-dihydropyrrolo[1,2,3-d,e]benzoxazin-8-yl]-2,4-pyrimidinediamine], for which the IC50 under setting [4] was under 10 µM.
As to `COc1ccc(Nc2ncc(F)c(Nc3ccc4c(c3)NC(=O)[C@@H](C)O4)n2)cc1Cl` [Compound 207], the IC50 under setting [3] was under 10 µM.
With `C[C@H]1Oc2ccc(Nc3nc(Nc4ccc5cnn(C)c5c4)ncc3F)cc2NC1=O` [Compound 210], the IC50 under setting [3] was under 10 µM.
Take `COc1ccc(Nc2ncc(F)c(Nc3ccc4c(c3)NC(=O)[C@@H](C)O4)n2)cc1Cl` [Compound 211]: the IC50 under setting [5] is under 10 µM.
`COc1cc(C)c(Nc2ncc(F)c(Nc3ccc4c(c3)NC(=O)[C@@H](C)O4)n2)cc1Cl` [Compound 213]: the IC50 was under 10 µM under setting [5] and under 10 µM under setting [3].
For `COc1cc(Nc2ncc(F)c(Nc3ccc4c(c3)NC(=O)C(C)S4(=O)=O)n2)cc(OC)c1` (centres unmarked) [Compound 263, N2-(3,5-Dimethoxyphenyl)-N4-(dioxide-2-methyl-1,1,3-trioxo-4H-benzo[1,4]thiazin-6-yl)-5-fluoro-2,4-pyrimidinediamine], the IC50 is, setting by setting: under setting [5], under 10 µM; under setting [3], under 10 µM.
On to `Cc1cc(C)cc(Nc2ncc(F)c(Nc3ccc4c(c3)NC(=O)C(C)S4(=O)=O)n2)c1` (centres unmarked) [Compound 264], for which the IC50 is under 10 µM under setting [5] and under 10 µM under setting [3].
Turning to `CC1C(=O)Nc2cc(Nc3nc(Nc4ccc5cn[nH]c5c4)ncc3F)ccc2S1(=O)=O` (centres unmarked) [Compound 265], the IC50 under setting [5] was under 10 µM and the IC50 under setting [3] was under 10 µM.
In the case of `COc1cc(Nc2ncc(F)c(Nc3ccc4c(c3)NC(=O)C(C)S4(=O)=O)n2)cc(OC)c1OC` (centres unmarked) [Compound 266], the IC50 was under 10 µM under setting [5] and under 10 µM under setting [3].
On to `COc1cc(Nc2ncc(F)c(Nc3ccc4c(c3)NC(=O)C(C)(C)S4(=O)=O)n2)cc(OC)c1` [Compound 267], for which the IC50 under setting [3] is under 10 µM.
`Cc1cc(C)cc(Nc2ncc(F)c(Nc3ccc4c(c3)NC(=O)C(C)(C)S4(=O)=O)n2)c1` [Compound 268]: under setting [3], the IC50 was under 10 µM.
Still for that read-out and setting: the figure for `COc1cc(Nc2ncc(F)c(Nc3ccc4c(c3)NC(=O)C(C)(C)S4(=O)=O)n2)cc(OC)c1OC` [Compound 269] is under 10 µM; for `COc1cc(Nc2ncc(F)c(Nc3ccc4c(c3)NC(=O)C(C)S4)n2)cc(OC)c1` (centres unmarked) [Compound 270] it is under 10 µM.
On the same count and under the same terms, next, `Cc1cc(C)cc(Nc2ncc(F)c(Nc3ccc4c(c3)NC(=O)C(C)S4)n2)c1` (centres unmarked) [Compound 271]: under 10 µM; `COc1cc(Nc2ncc(F)c(Nc3ccc4c(c3)NC(=O)C(C)S4)n2)cc(OC)c1OC` (centres unmarked) [Compound 272]: under 10 µM.
The same measure, in the same setting: next, `CC1(C)C(=O)Nc2cc(Nc3nc(Nc4ccc5cn[nH]c5c4)ncc3F)ccc2S1(=O)=O` [Compound 273]: under 10 µM.
On to `CC1(C)C(=O)Nc2cc(Nc3nc(Nc4ccc5[nH]ncc5c4)ncc3F)ccc2S1(=O)=O` [Compound 274], for which the IC50 under setting [3] was under 10 µM.
`CNC(=O)COc1cccc(Nc2ncc(F)c(Nc3ccc4c(c3)NC(=O)C(C)(C)S4(=O)=O)n2)c1` [Compound 275, N4-(2,2-Dimethyl-1,1,3-trioxo-4H-benzo[1,4]thiazin-6-yl)-5-fluoro-N2-[3-(N-methylamino)carbonylmethyleneoxyphenyl]-2,4-pyrimidinediamine]: the IC50 under setting [4] was under 10 µM.
